Drawing on the supplement of paper PMC10307832, this text covers relative viability for six cell lines.

Common to all, as to assay: relative viability (nuclei count vs DMSO), 5 days (fraction); higher = more cells survive
Compound in experiment [1]: C1CNCCC1C2=CC(=NN2)C3=CC=NC=C3 + Cc1nc(NC(=O)N2CCC[C@H]2C(N)=O)sc1-c1ccnc(C(C)(C)C(F)(F)F)c1 [Alpelisib] (partner 2 µM)
A digest of the protocol:
(§1)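 After 5 days of treatment, lung cancer cells in 1536-well plates were fixed and stained in a single step (final 0.05% Triton X-100, 1% formaldehyde, 1 ug/ml Hoechst) and their nuclei counted on 4× images. Treatment had been applied by pin tool the day after seeding as one drug alone or as a fixed anchor-drug dose with five library-drug doses (not always all listed) in √10 steps. Relative viability is the nuclei count of treated wells divided by that of vehicle wells, and values are medians of duplicate plates.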

Compound in experiment [2]: C1CNCCC1C2=CC(=NN2)C3=CC=NC=C3 + O=C(c1cc(Cc2n[nH]c(=O)c3ccccc23)ccc1F)N1CCN(C(=O)C2CC2)CC1 [Olaparib] (partner 8 µM)
In outline:
as §1

Compound in experiment [3]: C[C@@H](N)c1ccc(C(=O)Nc2ccnc3[nH]ccc23)cc1 + CC(=O)Nc1cccc(-n2c(=O)n(C3CC3)c(=O)c3c(Nc4ccc(I)cc4F)n(C)c(=O)c(C)c32)c1 [Trametinib] (partner 0.02 µM)
A digest of the protocol:
as §1

Compound in experiment [4]: C[C@@H](N)c1ccc(C(=O)Nc2ccnc3[nH]ccc23)cc1 + CS(=O)(=O)CCNCc1ccc(-c2ccc3ncnc(Nc4ccc(OCc5cccc(F)c5)c(Cl)c4)c3c2)o1 [Lapatinib] (partner 2 µM)
In outline: as §1

As for PC-3 [JPC-3], the relative viability in experiment [1] (first compound 0.08 µM) turned out to be 1; in experiment [1] (first compound 0.8 µM), 1.03; in experiment [1] (first compound 2.53 µM), 1.05; in experiment [1] (first compound 8 µM), 1.02; in experiment [2] (first compound 0.08 µM), 1.09; in experiment [2] (first compound 0.8 µM), 1.24. Besides, the relative viability in experiment [2] (first compound 2.53 µM) turned out to be 1.11; in experiment [2] (first compound 8 µM), 1.15; in experiment [3] (first compound 0.04 µM) it was 0.656; in experiment [3] (first compound 0.1265 µM) it was 0.695; in experiment [3] (first compound 0.4 µM) it was 0.732; in experiment [3] (first compound 1.265 µM) it was 0.651. For the same cell line, the relative viability was found to be 0.549 in experiment [3] (first compound 4 µM); 0.538 in experiment [4] (first compound 0.04 µM); 0.545 in experiment [4] (first compound 0.1265 µM); 0.505 in experiment [4] (first compound 0.4 µM); 0.529 in experiment [4] (first compound 1.265 µM); 0.536 in experiment [4] (first compound 4 µM).
For the cell line PC-14, the relative viability in experiment [1] (first compound 0.08 µM) was 0.938; in experiment [1] (first compound 0.8 µM), 0.913; in experiment [1] (first compound 2.53 µM), 1.1; in experiment [1] (first compound 8 µM), 0.923; in experiment [2] (first compound 0.08 µM), 0.21; in experiment [2] (first compound 0.8 µM), 0.273. Further, the relative viability in experiment [2] (first compound 2.53 µM) was 0.228; in experiment [2] (first compound 8 µM), 0.279; in experiment [3] (first compound 0.04 µM) it was 0.736; in experiment [3] (first compound 0.1265 µM), 0.656; in experiment [3] (first compound 0.4 µM), 0.497; in experiment [3] (first compound 4 µM) it was 0.431. For the same cell line, the relative viability in experiment [4] (first compound 0.04 µM) was found to be 0.292; in experiment [4] (first compound 0.1265 µM) it was 0.344; in experiment [4] (first compound 0.4 µM), 0.295; in experiment [4] (first compound 1.265 µM) it was 0.271; in experiment [4] (first compound 4 µM) it was 0.329.
With RERF-LC-KJ, the relative viability worked out at 0.803 in experiment [1] (first compound 0.08 µM); 0.709 in experiment [1] (first compound 0.8 µM); 0.963 in experiment [1] (first compound 2.53 µM); 0.89 in experiment [1] (first compound 8 µM); 0.849 in experiment [2] (first compound 0.08 µM); 0.873 in experiment [2] (first compound 0.8 µM). The relative viability in experiment [2] (first compound 2.53 µM) was 0.945; in experiment [2] (first compound 8 µM), 0.954; in experiment [3] (first compound 0.04 µM), 0.902; in experiment [3] (first compound 0.1265 µM), 0.972; in experiment [3] (first compound 0.4 µM), 0.971; in experiment [3] (first compound 1.265 µM), 0.96. Also, the relative viability was 0.873 in experiment [3] (first compound 4 µM); 0.906 in experiment [4] (first compound 0.04 µM); 0.837 in experiment [4] (first compound 0.1265 µM); 0.931 in experiment [4] (first compound 0.4 µM); 0.902 in experiment [4] (first compound 1.265 µM); 0.869 in experiment [4] (first compound 4 µM).
Consider SK-LU-1, for which the relative viability in experiment [1] (first compound 0.08 µM) was 1.08; in experiment [1] (first compound 0.8 µM), 1.06; in experiment [1] (first compound 2.53 µM), 1.05; in experiment [1] (first compound 8 µM), 0.942; in experiment [2] (first compound 0.08 µM), 0.437; in experiment [2] (first compound 0.8 µM), 0.425. For the same cell line, the relative viability was 0.467 in experiment [2] (first compound 2.53 µM); 0.439 in experiment [2] (first compound 8 µM); 0.422 in experiment [3] (first compound 0.04 µM); 0.506 in experiment [3] (first compound 0.1265 µM); 0.625 in experiment [3] (first compound 0.4 µM); 0.299 in experiment [3] (first compound 1.265 µM). Also, the relative viability was found to be 0.473 in experiment [3] (first compound 4 µM); 0.847 in experiment [4] (first compound 0.04 µM); 0.85 in experiment [4] (first compound 0.1265 µM); 0.906 in experiment [4] (first compound 0.4 µM); 0.828 in experiment [4] (first compound 1.265 µM); 0.779 in experiment [4] (first compound 4 µM).
Take SK-MES-1: the relative viability was 0.961 in experiment [1] (first compound 0.08 µM); 0.688 in experiment [1] (first compound 0.8 µM); 0.903 in experiment [1] (first compound 2.53 µM); 0.885 in experiment [1] (first compound 8 µM); 0.553 in experiment [2] (first compound 0.08 µM); 0.849 in experiment [2] (first compound 0.8 µM). The relative viability in experiment [2] (first compound 2.53 µM) stood at 0.714; in experiment [2] (first compound 8 µM) it was 0.684; in experiment [3] (first compound 0.04 µM) it was 0.607; in experiment [3] (first compound 0.1265 µM), 0.523; in experiment [3] (first compound 0.4 µM) it was 0.458; in experiment [3] (first compound 1.265 µM), 0.488. Also, the relative viability stood at 0.401 in experiment [3] (first compound 4 µM); 0.518 in experiment [4] (first compound 0.04 µM); 0.459 in experiment [4] (first compound 0.1265 µM); 0.428 in experiment [4] (first compound 0.4 µM); 0.423 in experiment [4] (first compound 1.265 µM); 0.444 in experiment [4] (first compound 4 µM).
SW 1573: the relative viability in experiment [1] (first compound 0.08 µM) came out at 0.722; in experiment [1] (first compound 0.8 µM), 0.625; in experiment [1] (first compound 2.53 µM), 0.774; in experiment [1] (first compound 8 µM), 0.755; in experiment [2] (first compound 0.8 µM), 0.612; in experiment [2] (first compound 2.53 µM), 0.655. In addition, the relative viability is 0.626 in experiment [2] (first compound 8 µM); 0.767 in experiment [3] (first compound 0.04 µM); 0.615 in experiment [3] (first compound 0.1265 µM); 0.598 in experiment [3] (first compound 0.4 µM); 0.56 in experiment [3] (first compound 1.265 µM); 0.529 in experiment [3] (first compound 4 µM). The relative viability in experiment [4] (first compound 0.04 µM) came out at 1.3; in experiment [4] (first compound 0.1265 µM), 1.14; in experiment [4] (first compound 0.4 µM), 1.18; in experiment [4] (first compound 1.265 µM), 1.04; in experiment [4] (first compound 4 µM), 1.08.
